Assay [1] concerns the target human PRMT8 (Homo sapiens, UniProt Q9NR22). The experiment in a line: PRMT8 Biochemical Assay (3H-SAM Flashplate, peptide substrate). An excerpt: S-adenosylmethionine (SAM), S-adenosylhomocysteine (SAH), bicine, Tween20, dimethylsulfoxide (DMSO), bovine skin gelatin (BSG), isopropyl-β-D-thiogalactopyranoside (IPTG), and Tris(2-carboxyethyl)phosphine hydrochloride solution (TCEP) were purchased from Sigma-Aldrich at the highest level of purity possible. ^3H-SAM was purchase from American Radiolabeled Chemicals with a specific activity of 80 Ci/mmol. 384-well streptavidin Flashplates were purchased from PerkinElmer.
Peptide representative of human histone H4 residues 31-45 was synthesized with an N-terminal linker-affinity tag motif and a C-terminal amide cap by 21st Century Biochemicals.
E. coli (BL21(DE3) Gold, Stratagene) made competent by the CaCl2 method were transformed with the PRMT8 construct and ampicillin selection. Protein over-expression was accomplished by growing the PRMT8 expressing E. coli clone and inducing expression with 0.3 mM IPTG at 16° C. The culture was grown for 12 hours, harvested by centrifugation, and stored at −80° C. for purification.
GST-tagged PRMT8 was eluted with 50 mM Tris, 2 mM glutathione, pH 7.8. Pooled fractions were cleaved by thrombin (10 U) and dialysed in buffer A. GST was removed by reloading the cleaved protein sample onto glutathione sepharose column and PRMT8 was collected in the flow-through fractions. PRMT8 was purified further by ceramic hydroxyapatite chromatography. The column was washed with 50 mM phosphate buffer, 100 mM NaCl, 5% glycerol, 5 mM β-mercaptoethanol, pH 7.8 and PRMT8 was eluted by 100 mM phosphate in the same buffer. Protein was concentrated and buffer was exchanged to 50 mM Tris, 300 mM NaCl, 10% glycerol, 5 mM β-mercaptoethanol, pH 7.8 by ultrafiltration.
General Procedure for PRMT8 Enzyme Assays on Peptide Substrates.
The assays were all performed in a buffer consisting of 20 mM Bicine (pH=7.6), 1 mM TCEP, 0.005% BSG, and 0.002% Tween 20, prepared on the day of use. […] DMSO (1 ul) was added to Columns 11, 12, 23, 24, rows A-H for the maximum signal control and 1 ul of SAH, a known product and inhibitor of PRMT8, was added to columns 11, 12, 23, 24, rows I-P for the minimum signal control. A cocktail (40 ul) containing the PRMT8 enzyme was added by Multidrop Combi (Thermo-Fisher). The compounds were allowed to incubate with PRMT8 for 30 min at room temperature, then a cocktail (10 ul) containing ^3H-SAM and peptide was added to initiate the reaction (final volume=51 ul). […] The assays were stopped by the addition of non-radiolabeled SAM (10 ul) to a final concentration of 400 uM, which dilutes the ^3H-SAM to a level where its incorporation into the peptide substrate is no longer detectable. 50 ul of the reaction in the 384-well polypropylene plate was then transferred to a 384-well Flashplate and the biotinylated peptides were allowed to bind to the streptavidin surface for at least 1 hour before being washed once with 0.1% Tween20 in a Biotek ELx405 plate washer. The plates were then read in a PerkinElmer TopCount plate reader to measure the quantity of ^3H-labeled peptide bound to the Flashplate surface, measured as disintegrations per minute (dpm) or alternatively, referred to as counts per minute (cpm).
Where dpm=disintegrations per minute, cmpd=signal in assay well, and min and max are the respective minimum and maximum signal controls.
Where top and bottom are the normally allowed to float, but may be fixed at 100 or 0 respectively in a 3-parameter fit. The Hill Coefficient normally allowed to float but may also be fixed at 1 in a 3-parameter fit. Y is the % inhibition and X is the compound concentration.

Assay [2] deals with mono-methyl arginine in RKO cells. Put plainly: RKO Methylation Assay, In Cell Western (ICW) for mono-methyl arginine and DNA content. The class given is cell-based. The note with it: Homo sapiens, RKO, 72 h. In outline:
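RKO cells treated with compound for 72 hours at 37 °C, then methanol-fixed and stained overnight at 4 °C with anti-mono-methyl arginine antibody, plus DRAQ5 for DNA. Signal ratio from 700 and 800 nm infrared scans normalized to DMSO (minimum) and 20 μM reference compound (maximum); EC30 from triplicate curves.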

Where [3] appears, read: single experiment or average of multiple experiments.
Where [4] appears, read: RKO cells, 72 hours, mono-methyl arginine, percent activation, class symbols, read-out: EC30 (In Cell Western data).
Setting [5] is: RKO cells, 72 hours, mono-methyl arginine, percent activation, single experiment or average of multiple experiments, read-out: EC30 (In Cell Western data, Numerical).

Where two headings read alike, the source gives them in different places. Bounds are passed on as bounds.

Broadly, the IC50 is the point on the concentration scale where inhibition reaches its midpoint. Lower therefore signals greater potency in that assay. As usually defined, the EC30 is the concentration at which the effect reaches the 30% level.

Chain of human PRMT8 (Q9NR22 whole entry, the tested form may be a part): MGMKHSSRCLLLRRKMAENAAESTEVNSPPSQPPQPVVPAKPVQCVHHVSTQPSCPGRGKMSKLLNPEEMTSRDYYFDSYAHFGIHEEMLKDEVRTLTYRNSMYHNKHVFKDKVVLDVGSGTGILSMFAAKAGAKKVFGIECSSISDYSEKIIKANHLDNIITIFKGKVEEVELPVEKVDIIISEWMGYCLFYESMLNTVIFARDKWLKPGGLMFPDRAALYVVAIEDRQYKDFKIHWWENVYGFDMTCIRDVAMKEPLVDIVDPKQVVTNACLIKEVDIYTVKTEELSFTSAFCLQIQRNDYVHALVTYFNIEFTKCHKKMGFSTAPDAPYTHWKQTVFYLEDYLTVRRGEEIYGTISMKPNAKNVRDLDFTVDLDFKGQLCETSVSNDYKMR

In the case of `CNCCN(C)Cc1c[nH]nc1-c1ccc(OCC2CCOCC2)cc1` [Compound 284], the IC50 is < 100 nM in assay [1] and 90.2 nM in assay [1] (setting [3]). Also, the EC30 in assay [2] (setting [4]) was < 3 µM; in assay [2] (setting [5]) it was 0.856 µM.
The like results for `CNCCN(C)Cc1c[nH]nc1-c1ccc(OCC2CCOC2)cc1` (centres unmarked) [Compound 285] were, in that order, < 100 nM, 69.2 nM, < 3 µM and 0.62 µM.
The corresponding values for `CNCCN(C)Cc1c[nH]nc1-c1ccc(OC(CO)C(C)C)cc1` (centres unmarked) [Compound 286] are < 100 nM, 55.3 nM, < 3 µM and 0.812 µM.
Turning to `CNCCN(C)Cc1c[nH]nc1-c1ccc(OCC2CC2)cc1` [Compound 288], the results for the IC50 in assay [1] and in assay [1] (setting [3]) were < 100 nM and 14.2 nM, respectively. The EC30 in assay [2] (setting [4]) was < 3 µM; in assay [2] (setting [5]), 0.076 µM.
In the case of `CNCCN(C)Cc1c[nH]nc1-c1ccc(OCCOC)cc1` [Compound 289], the IC50 in assay [1] is < 100 nM; in assay [1] (setting [3]), 46 nM. Further, the results for the EC30 in assay [2] (setting [4]) and in assay [2] (setting [5]) were < 3 µM and 0.419 µM, respectively.
For `CCC(CC)Oc1ccc(-c2n[nH]cc2CN(C)CCNC)cc1` [Compound 290], the figures for the IC50 in assay [1] and in assay [1] (setting [3]) were < 100 nM and 10.6 nM, respectively. The figures for the EC30 in assay [2] (setting [4]) and in assay [2] (setting [5]) were < 3 µM and 0.021 µM, respectively.
Regarding `CNCCN(C)Cc1c[nH]nc1-c1ccc(OC2CCOCC2)c(F)c1` [Compound 291], the IC50 in assay [1] was < 100 nM; in assay [1] (setting [3]), 25.4 nM. The EC30 was < 3 µM in assay [2] (read-out: EC30 (In Cell Western data)) and 0.154 µM in assay [2] (read-out: EC30 (In Cell Western data, Numerical, μM)).
Take `CNCCN(C)Cc1c[nH]nc1-c1ccc(OC2CCOCC2)c(Cl)c1` [Compound 292]: the values for the IC50 in assay [1] and in assay [1] (setting [3]) were < 100 nM and 8.52 nM, respectively. In addition, the values for the EC30 in assay [2] (setting [4]) and in assay [2] (setting [5]) were < 3 µM and 0.098 µM, respectively.
The like results for `CNCCN(C)Cc1c[nH]nc1-c1ccc(OC2CC2)cc1` [Compound 293] were, in that order, < 100 nM, 28 nM, < 3 µM and 0.336 µM.
For the compound `CNCCN(C)Cc1c[nH]nc1-c1ccc(NC(C)C)cc1` [Compound 295], the IC50 was < 100 nM in assay [1] and 33.7 nM in assay [1] (setting [3]). Also, the concentration for an effect of 30% (EC30) in assay [2] (setting [4]) is < 3 µM; in assay [2] (setting [5]), 0.116 µM.
As for `CNCCN(C)Cc1c[nH]nc1-c1ccc(NCC(C)C)cc1` [Compound 296], the IC50 in assay [1] was < 100 nM; in assay [1] (setting [3]) it was 57.6 nM. The EC30 in assay [2] (setting [4]) was < 3 µM; in assay [2] (setting [5]), 0.478 µM.
The like results for `CNCCN(C)Cc1c[nH]nc1-c1ccc(Oc2ccccc2)c(F)c1` [Compound 297] were, in that order, < 100 nM, 6.68 nM, < 3 µM and 0.08 µM.
The like results for `CNCCN(C)Cc1c[nH]nc1-c1ccc(OCC2CC2)c(F)c1` [Compound 298] were, in that order, < 100 nM, 16.3 nM, < 3 µM and 0.104 µM.
The like results for `CNCCN(C)Cc1c[nH]nc1-c1ccc(OC2CCC(O)CC2)cc1` (centres unmarked) [Compound 299] were, in that order, < 100 nM, 55 nM, < 3 µM and 0.877 µM.
As to `CNCCN(C)Cc1c[nH]nc1-c1ccc(N(C)C(C)C)cc1` [Compound 300], the figures for the IC50 in assay [1] and in assay [1] (setting [3]) were < 100 nM and 64.7 nM, respectively. The results for the EC30 in assay [2] (setting [4]) and in assay [2] (setting [5]) were < 3 µM and 0.611 µM, respectively.
Regarding `CNCCN(C)Cc1c[nH]nc1-c1ccc(OC2CC2)c(F)c1` [Compound 301], the IC50 in assay [1] was < 100 nM; in assay [1] (setting [3]), 23.5 nM. The values for the EC30 in assay [2] (setting [4]) and in assay [2] (setting [5]) were < 3 µM and 0.128 µM, respectively.
On to `CNCCN(C)Cc1c[nH]nc1-c1ccc(Oc2ncccn2)cc1` [Compound 302], for which the values for the IC50 in assay [1] and in assay [1] (setting [3]) were 101 to 1000 nM and 123 nM, respectively. The EC30 is < 3 µM in assay [2] (setting [4]) and 0.976 µM in assay [2] (setting [5]).

The values above are taken from patent US9776972B2, “Pyrazole derivatives as arginine methyltransferase inhibitors and uses thereof” (priority 2013, dated 2017).
